Active and inactive are the calls of the source. No cut-off for these calls is given here.
Columns and labels:
Format in all cases: functional, organism-based
Bacillus subtilis = assay: Antimicrobial activity against Bacillus subtilis CCRC 10255 after 24 hr by broth microdilution method
Staphylococcus aureus = assay: Antimicrobial activity against Staphylococcus aureus ATCC 25923 after 24 hr by broth microdilution method
Proteus mirabilis = assay: Antimicrobial activity against Proteus mirabilis ATCC 49027 after 24 hr by broth microdilution method
Salmonella typhi = assay: Antimicrobial activity against Salmonella enterica subsp. enterica serovar Typhi ATCC 19430 after 24 hr by broth microdilution method
Shigella dysenteriae = assay: Antimicrobial activity against Shigella dysenteriae NI-51570 after 24 hr by broth microdilution method
Pseudomonas aeruginosa = assay: Antimicrobial activity against Pseudomonas aeruginosa ATCC 27853 after 24 hr by broth microdilution method
Escherichia coli = assay: Antimicrobial activity against Escherichia coli ATCC 25922 after 24 hr by broth microdilution method

SMILES	Activity (Bacillus subtilis)	Activity (Staphylococcus aureus)	Activity (Proteus mirabilis)	Activity (Salmonella typhi)	Activity (Shigella dysenteriae)	Activity (Pseudomonas aeruginosa)	Activity (Escherichia coli)
CCCCCCCCCC(=O)CC=O	Active	Active					
CCCCCCCCCCCC(=O)CC=O	Active	Active					
CCCCCCCC(=O)CC=O	Active	Active					
CCCCCCCC(=O)C(C=O)CC (stereo not drawn)	Active	Active	inactive	inactive	inactive	inactive	inactive

From ChEMBL document CHEMBL3045317, “Synthesis of novel analogues on the -carbon of houttuyfonate and SAR analysis of antibacterial activity with MOPAC” (Med Chem Res, 2009)
